The results in this text go back to patent US20050102708A1, “Animal model simulating neurologic disease” (priority 2003, published 2005).

The subject of experiment [1] is Hyperphosphorylated Tau protein. The experiment can be described thus: ELISA of hyperphosphorylated Tau protein in CSF. Format: in vivo, rat. Particulars: rats, four week infusion into the left ventricle. As to the method:
Surgical procedure: Anesthetized rats (equitesin, 3 ml/kg, i.p.) were placed on a stereotaxic frame. Using the electrode micromanipulator, the outlet of an osmotic micropump (Durect Corp., Cupertino, Calif.) was implanted into the left ventricle following the coordinates D=3.4 mm, L=1.4 mm and AP=0.92 mm prior to the bregma. The tank of the osmotic pump was implanted in a subcutaneous pocket in the midscapular area of the back of the rat. After surgery rats were put on a heating blanket for recovery. During the whole procedure, the body temperature was monitored and kept stable at 37° C.
Perfusion: Rats were divided into six groups regarding the composition of the solution contained in the osmotic micropump tank, as provided in Table 1. Group I served as the control group and received only artificial cerebrospinal fluid (“CSF”).
ELISA: Hyperphosphorylated Tau protein was measured in the CSF using the Elisa kit INNOTEST™ (Innogenetics, Belgium).

The next experiment deals with Long-Evans male rats. The experiment is described as follows: Morris watermaze memory retention test. Particulars: four week infusion into the left ventricle, tested at end of perfusion period. Format: in vivo, rat. The source says:
Inducing a Neurologic Disease in a Non-Human Animal. Animals: Long-Evans male rats weighing 300-325 grams were housed following a natural day-night cycle with food and water ad libitum.
Morris watermaze protocol: Before the surgery, the rats were trained on a standard Morris spatial navigation task in a black water tank (200 cm diameter). The water was rendered opaque by water-miscible non-toxic white paint (Crayola Inc.). The rats were placed in four different, randomly assigned, start positions and trained to find an invisible platform (20 cm diameter) at a fixed position in the middle of the water tank. The water temperature was about 24° C. A trial lasted until a rat found the platform or until 120 seconds elapsed. […] Rats were trained for four consecutive days, four trials a day, with 30 minutes between subsequent trials. Surgery procedures were performed on the fifth day. Rats were tested again for memory retention at the end of the four weeks-perfusion period.
Surgical procedure: Anesthetized rats (equitesin, 3 ml/kg, i.p.) were placed on a stereotaxic frame. Using the electrode micromanipulator, the outlet of an osmotic micropump (Durect Corp., Cupertino, Calif.) was implanted into the left ventricle following the coordinates D=3.4 mm, L=1.4 mm and AP=0.92 mm prior to the bregma. […] During the whole procedure, the body temperature was monitored and kept stable at 37° C. […]

Consider β42-amyloid peptide [Aβ42], for which the “phosphorylated Tau protein in the CSF” value in experiment [1] is “not sufficient to induce”. Moreover, in the experiment on Long-Evans male rats, the “memory impairment / latency to retrieve the platform in the Morris watermaze test” value is on record as “not sufficient to induce memory impairment”.
